{
  "source": "patent US11352399B2",
  "about": "“Peptide for toll-like receptor (TLR) inhibition and pharmaceutical composition comprising same” (GENESEN CO., LTD., priority 2017, dated 2022)",
  "key": {"[1]": {"tested_on": "NF-κB (p-p65)", "assay": "Confocal microscopy of NF-κB activity (p-p65) in LPS-treated RAW 264.7 cells", "assay_type": "cell-based, mouse", "conditions": "LPS together with TIP1, FIG. 3", "protocol": "RAW 264.7 cells and THP1 cells were dispensed into 24-well plates to a cell number of 2×10^5 cells/well, and then grown in an incubator overnight. Subsequently, combined treatment with TIP1 and LPS was performed. After 24 hours, the RAW 264.7 cells and the THP1 cells were fixed with 3.7% formaldehyde (Sigma-Aldrich Co. LLC) for 15 minutes, and immersed into 0.2% Triton X-100 (AMRESCO, Solon, Ohio, USA) for 15 minutes. Then, washing with PBS was performed three times and blocking with 2% BSA solution was performed. The blocked cells were incubated for 2 hours with TIP1-FITC (25 μM; Peptron, Inc., Daejeon, Korea), p-p65, TLR4, Myd88, TOM20 (1:1000; Santa Cruz Biotechnology Inc.), and NLRP3 (Adipogen) antibodies. Then, washing with PBS was performed three times. Subsequently, the cells were incubated with AlexaFluor […] and/or 488 and/or 546-conjugated secondary antibodies (Invitrogen, Carlsbad, Calif., USA) for 1 hour, and washed three times with PBS. Subsequently, the cells were stained at room temperature for 15 minutes using 5 μM Hoechst 33258 (Sigma-Aldrich Co.), and the number of the fluorescently stained cells was counted using a confocal laser scanning microscope (LSM-700, Carl Zeiss MicroImaging GmbH). The images were analyzed using Zen 2009 software.\nThe results are illustrated in FIG. 3."}, "[2]": {"tested_on": "RAW 264.7 cells (LPS-induced TLR4 signaling)", "assay": "Cytokine secretion (ELISA) in LPS-treated RAW 264.7 cells", "assay_type": "cell-based, mouse", "conditions": "TIP1 and LPS", "protocol": "RAW 264.7 cells, THP1 cells, and mBMDM cells were dispensed into 96-well plates to a cell number of 2×10^5 cells/well, or into 24-well plates to a cell number of 5×10^5 cells/well. Incubation was performed overnight. Subsequently, combined treatment with TIP1 and LPS was performed. After 24 hours, secretion levels of IFN-β, IL-6, and TNF-α were measured using a […] (BioLegend), Mouse IL-6 Platinum ELISA (eBiosciences), and a Mouse TNF alpha ELISA Ready SET-Go! kit (eBiosciences). Absorbance was measured at 450 nm using a microplate reader spectrophotometer (Molecular Devices), and the results were analyzed using Softmax Pro 5.3 software (Molecular Devices Inc.).\nTNF-α, IL-6, IFN-β levels in the culture supernatant of RAW 264.7 cells were measured using mouse TNF-α, IL-6, IFN-β Ready-SET-Go! ELISA kits according to the method described in Example 2-5. The results are illustrated in FIGS. 4(a)-4(c)."}, "[3]": {"tested_on": "RAW 264.7 cells", "assay": "Intracytoplasmic NO and ROS (DAF-FM, DCF-DA) in RAW 264.7 cells", "assay_type": "cell-based, mouse", "conditions": "TIP1 and LPS", "protocol": "RAW 264.7 cells were dispensed into 6-cm dishes (SPL Life Sciences, Pocheon, Korea) to a cell number of 1×10^6 cells/well and incubation was performed overnight. Subsequently, treatment with TIP1 was performed and respective staining with DAF-FM and DCF-DA (Thermo Fisher Scientific, Inc.) was performed. Then, incubation was performed for 1 hour. Thereafter, the cells were collected by centrifugation at 200×g for 5 minutes, transferred to brown tubes, and stored in PBS at a temperature of 4° C. The intensities of DAF-FM, DCF-DA fluorescent materials were measured using FACSAria III with Diva software (BD Biosciences), and quantified.\nIn addition, according to the method described in Example 2-7, a NO level in the culture supernatant of RAW 264.7 cells was measured using a NO detection kit. The results are illustrated in FIGS. 5(a)-5(c)."}, "[4]": {"molecular_target": "T1, TLR1/2 (Mus musculus, UniProt Q9EPQ1+Q9QUN7)", "T1 construct": "host or cells: RAW 264.7", "T1 sequence (Q9EPQ1 26-795)": "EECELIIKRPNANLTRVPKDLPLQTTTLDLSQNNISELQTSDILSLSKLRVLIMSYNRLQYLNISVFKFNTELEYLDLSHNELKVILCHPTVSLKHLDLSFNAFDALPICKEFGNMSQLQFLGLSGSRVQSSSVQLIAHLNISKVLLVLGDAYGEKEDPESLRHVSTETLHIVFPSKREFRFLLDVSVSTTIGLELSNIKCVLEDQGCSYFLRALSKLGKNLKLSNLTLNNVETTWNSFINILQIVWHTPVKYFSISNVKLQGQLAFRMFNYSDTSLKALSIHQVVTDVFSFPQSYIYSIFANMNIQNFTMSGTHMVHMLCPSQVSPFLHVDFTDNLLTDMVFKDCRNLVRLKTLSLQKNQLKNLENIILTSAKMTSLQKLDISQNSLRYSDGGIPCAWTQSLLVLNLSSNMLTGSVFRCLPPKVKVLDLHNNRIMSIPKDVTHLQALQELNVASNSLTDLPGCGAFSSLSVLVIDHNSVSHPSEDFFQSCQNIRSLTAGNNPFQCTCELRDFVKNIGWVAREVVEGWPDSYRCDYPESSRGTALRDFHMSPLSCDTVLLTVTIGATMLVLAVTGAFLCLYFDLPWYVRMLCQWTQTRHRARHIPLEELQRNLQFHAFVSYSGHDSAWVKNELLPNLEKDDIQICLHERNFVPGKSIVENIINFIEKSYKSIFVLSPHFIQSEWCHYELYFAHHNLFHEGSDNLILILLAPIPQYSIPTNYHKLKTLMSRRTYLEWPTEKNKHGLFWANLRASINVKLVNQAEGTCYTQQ", "T1 sequence (Q9QUN7 25-784)": "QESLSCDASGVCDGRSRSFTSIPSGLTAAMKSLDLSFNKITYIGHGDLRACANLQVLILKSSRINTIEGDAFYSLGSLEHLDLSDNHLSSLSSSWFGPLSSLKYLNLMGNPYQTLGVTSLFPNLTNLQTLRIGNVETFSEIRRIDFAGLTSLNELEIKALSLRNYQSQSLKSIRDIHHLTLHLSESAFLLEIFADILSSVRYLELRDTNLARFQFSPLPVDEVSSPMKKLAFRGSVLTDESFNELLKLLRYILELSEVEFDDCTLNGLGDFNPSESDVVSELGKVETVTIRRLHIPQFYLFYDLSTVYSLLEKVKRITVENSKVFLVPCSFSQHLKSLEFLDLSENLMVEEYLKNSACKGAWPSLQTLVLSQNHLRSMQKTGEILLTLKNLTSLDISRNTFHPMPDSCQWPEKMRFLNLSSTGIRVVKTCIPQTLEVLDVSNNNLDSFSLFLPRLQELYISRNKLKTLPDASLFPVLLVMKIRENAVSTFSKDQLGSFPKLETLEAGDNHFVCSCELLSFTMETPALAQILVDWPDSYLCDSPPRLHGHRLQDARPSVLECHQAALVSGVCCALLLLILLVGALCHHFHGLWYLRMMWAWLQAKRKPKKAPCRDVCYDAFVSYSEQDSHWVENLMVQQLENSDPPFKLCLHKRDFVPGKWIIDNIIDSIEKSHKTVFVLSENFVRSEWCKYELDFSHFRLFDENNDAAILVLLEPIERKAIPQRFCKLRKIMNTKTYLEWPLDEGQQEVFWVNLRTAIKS", "assay": "TNF-α secretion in RAW 264.7 cells with PAM3CSK4", "assay_type": "cell-based"}, "[5]": {"molecular_target": "T2, TLR2/6 (Mus musculus, UniProt Q9EPW9+Q9QUN7)", "T2 construct": "host or cells: RAW 264.7", "T2 sequence (Q9QUN7 25-784)": "as above", "T2 sequence (Q9EPW9 28-795)": "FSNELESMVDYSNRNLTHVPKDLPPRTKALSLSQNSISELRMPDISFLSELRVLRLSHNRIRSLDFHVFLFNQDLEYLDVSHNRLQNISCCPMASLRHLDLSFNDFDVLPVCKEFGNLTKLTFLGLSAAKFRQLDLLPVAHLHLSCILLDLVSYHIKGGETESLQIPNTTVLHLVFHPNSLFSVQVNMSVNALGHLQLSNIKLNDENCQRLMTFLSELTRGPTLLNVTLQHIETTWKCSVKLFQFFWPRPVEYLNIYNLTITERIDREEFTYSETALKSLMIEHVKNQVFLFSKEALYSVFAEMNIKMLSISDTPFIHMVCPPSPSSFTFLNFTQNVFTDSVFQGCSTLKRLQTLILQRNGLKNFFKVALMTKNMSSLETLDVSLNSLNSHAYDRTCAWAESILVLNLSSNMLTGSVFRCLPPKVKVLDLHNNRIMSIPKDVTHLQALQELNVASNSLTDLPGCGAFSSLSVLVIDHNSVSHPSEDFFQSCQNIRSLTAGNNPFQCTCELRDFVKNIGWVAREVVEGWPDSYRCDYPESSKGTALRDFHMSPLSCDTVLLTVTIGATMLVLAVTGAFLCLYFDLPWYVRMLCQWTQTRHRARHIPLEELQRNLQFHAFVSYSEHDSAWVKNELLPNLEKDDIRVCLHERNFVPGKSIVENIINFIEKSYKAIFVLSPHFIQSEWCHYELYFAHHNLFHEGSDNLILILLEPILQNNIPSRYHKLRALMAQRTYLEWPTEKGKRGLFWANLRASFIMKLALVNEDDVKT", "assay": "TNF-α secretion in RAW 264.7 cells with FSL-1", "assay_type": "cell-based"}, "[6]": {"tested_on": "LPS-injected C57BL/6J mice", "assay": "Plasma cytokine secretion in LPS-injected mice", "assay_type": "in vivo, mouse", "conditions": "TIP1 10 nmol/g i.p., 1 hour later LPS 5 μg/g, blood 1 or 2 hours", "protocol": "All animal experiments were conducted under approval of the Institutional Animal Care and Use Committee (KHNMC AP 2016-006). […] The control was injected with the same volume of PBS. Subsequently, the plasma was isolated through centrifugation from the mouse blood and stored at −80° C. until analysis of secretion levels. TNF-α, IL-12p40 (diluted at 1:100), and IL-6 (diluted at 1:100) levels in the plasma were measured using mouse TNF-α, IL-12p40, IL-6 ELISA MAX Deluxe ELISA kits (BioLegend, San Diego, Calif., USA). Absorbance was measured at 450 nm using a microplate reader spectrophotometer (Molecular Devices In.), and the results were analyzed using Softmax Pro 5.3 software (Molecular Devices Inc.). The results are illustrated in FIGS. 14(a)-14(c)."}, "[7]": {"tested_on": "renal tissue of LPS-treated mice", "assay": "Renal apoptosis by TUNEL staining in LPS-treated mice", "assay_type": "in vivo, mouse", "conditions": "TIP1 and LPS, 24 hours", "protocol": "Subsequently, renal tissues were isolated and weighed using an electronic balance (ER-180A, A&D Company, Tokyo, Japan); and then, cut into sagittal planes to make slices. The slices were left overnight in a 10% formalin solution, and then solidified by pouring of paraffin wax. The resultant was made into thin sections of 4 μm using a microtome and fixed. […] The images were analyzed using Zen 2009 software (Carl Zeiss MicroImaging GmbH.). The results are illustrated in FIG. 17."}, "[8]": {"tested_on": "LPS-induced sepsis model BALB/c mice", "assay": "Survival rate in LPS-induced sepsis model", "assay_type": "in vivo, mouse", "protocol": "The control was injected with the same volume of PBS. The results are illustrated in FIG. 18."}, "[9]": {"conditions": "severe sepsis model, LPS 10 μg/g, TIP1 10 nmol/g"}},
  "data": [
    {"sequence": "RQIKIWFQNRRMKWKKSHCRVLLI (TIP1)", "values": [
      {"measurement": "NF-κB activity (LPS-induced p65 phosphorylation level in the nucleus)", "setting": "[1]", "result": "NF-κB activity was decreased"},
      {"measurement": "secretion of IFN-β", "setting": "[2]", "result": "decreased in a concentration-dependent manner"},
      {"measurement": "secretion of IL-6", "setting": "[2]", "result": "decreased in a concentration-dependent manner"},
      {"measurement": "secretion of TNF-α", "setting": "[2]", "result": "decreased in a concentration-dependent manner"},
      {"measurement": "generation level of NO in the cytoplasm", "setting": "[3]; DAF-FM", "result": "effectively decreased"},
      {"measurement": "generation level of ROS in the cytoplasm", "setting": "[3]; DCF-DA", "result": "effectively decreased"},
      {"measurement": "secretion level of TNF-α", "setting": "[4]", "result": "decreased"},
      {"measurement": "secretion level of TNF-α", "setting": "[5]", "result": "decreased"},
      {"measurement": "secretion level of IL-6 in plasma", "setting": "[6]", "result": "remarkably decreased"},
      {"measurement": "secretion level of IL-12p40 in plasma", "setting": "[6]", "result": "remarkably decreased"},
      {"measurement": "secretion level of TNF-α in plasma", "setting": "[6]", "result": "remarkably decreased"},
      {"measurement": "apoptosis in renal tissue (TUNEL-positive cells)", "setting": "[7]", "result": "decreased"},
      {"measurement": "survival rate compared with only LPS", "setting": "[8]; BALB/c mice, TIP1 10 nmol/g and LPS 5 or 10 μg/g, 5 days", "result": "increased survival rate"},
      {"measurement": "survival rate maintained for 5 days", "setting": "[8]; mild sepsis model, LPS 5 μg/g, TIP1 10 nmol/g", "result": 30, "unit": "%"},
      {"measurement": "decrease of survival rate after two days", "setting": "[8]; [9]", "result": 90, "unit": "%"},
      {"measurement": "survival rate maintained for one day", "setting": "[8]; [9]", "result": 100, "unit": "%"}
    ]}
  ]
}
